In patent US20240308988A1, “Method For Controlling Diamide Resistant Pests and Compounds Therefor” (priority 2021, published 2024):

Experiments:
[1] = test system: Plutella xylostella (Diamond back moth) ryanodine receptor, containing the G4946E resistance mutation; assay: In vitro calcium fluorescence assay (Fluo-8 NW, FDSS) in human embryonic kidney cells expressing the ryanodine receptor; type: cell-based; details: table; EC50 (compound)/EC50 (cyantraniliprole); G4946E RyR in HEK cells
Protocol: Human embryonic kidney cells expressing the Plutella xylostella (Diamond back moth) ryanodine receptor, containing the G4946E resistance mutation, are loaded with Fluo-8 No Wash (NW) calcium-sensitive dye which responds by fluorescence to a change in intracellular calcium (e.g. stimulated by activation of ryanodine receptor). Test compounds are added in 10 rates to a 384-well plate containing dye-loaded cells and the fluorescent signal is measured using the Hamamatsu FDSS (Functional Drug Screening system). Dose-response curves are plotted to estimate the EC50. EC50 are normalized against an in-assay reference standard (cyantraniliprole) to address inter-assay variability. The ratio for a given compound is then obtained by the following formula:
REC50=EC50 (compound)/EC50 (cyantraniliprole).

[2] = test system: Resistant Plutella xylostella R1 (multi-resistant larvae having the G4946E resistance mutation); assay: Resistant Plutella xylostella R1 (Diamond back moth) larvicide L3, feeding/contact, sprayed Chinese cabbage leaves; type: in vivo; details: Plutella xylostella, 96 h, read-out: control of the resistant strain of Plutella xylostella R1
Protocol: Resistant Plutella xylostella R1 (Diamond back moth) larvicide L3, feeding/contact Chinese cabbage plants were sprayed with diluted test solutions in an application chamber. Cut off leaves were placed into petri dishes with wetted filter paper and infested 1 day after application with 10 L3 multi-resistant Plutella xylostella larvae having the G4946E resistance mutation.
Samples were assessed 4 days after infestation for mortality and growth regulation.
Chlorantraniliprole was used as standard and a resistance factor of 146 was obtained for this strain.
Plutella xylostella resistant strain R1 originally collected from Taiwan in 2012 that carries the RyR mutation G4946E conferring resistance to diamides. The strain is reared on cabbage plants (Brassica aleracea) and selected approximately every two weeks with chlorantraniliprole.

[3] = test system: Resistant Plutella xylostella R4 (carries the RyR mutation G4946E); assay: Resistant Plutella xylostella R4 (Diamond back moth) larvicide L1, feeding/contact, artificial diet in 24-well plates; type: in vivo; details: Plutella xylostella, 192 h, read-out: control of the resistant strain of Plutella xylostella R4
Protocol: Resistant Plutella xylostella R4 (Diamond back moth) larvicide L1, feeding/contact 24-well microtiter plates with artificial diet were treated with aqueous test solutions prepared from 10′000 ppm DMSO stock solutions by pipetting. After drying, around 30 Plutella eggs were pipetted through a plastic stencil onto a gel blotting paper and the plate was closed with it. The samples were assessed for mortality in comparison to untreated samples 8 days after infestation.
Chlorantraniliprole was used as standard and a resistance factor of 242 was obtained for this strain
Plutella xylostella resistant strain R4 originated in the lab in 2021 from crossing the R1 strain with a lab-reared susceptible P. xylostella strain (SUS). R4 can be reared and tested on artificial diet and also carries the RyR mutation G4946E conferring resistance to diamides. The strain is selected approximately every two weeks with chlorantraniliprole. The following compounds, according to the present invention, gave at least 80% control of the resistant strain of Plutella xylostella R4 at 50 ppm or below: P11, P18, P26, P31, P33, P34, P36, P38, P42, P43, P46, P49, P50, P52, P56, P58, P60, P61, P63, P64, P65, P66, P67, P73, P76, P84, P97, P99, P102, P105.

| SMILES | REC50 (Compound of the invention) [1] | pest or weed control at 50 µg/mL [2] [%] | pest or weed control at 50 µg/mL [3] [%] |
| --- | --- | --- | --- |
| Cc1cc(Cl)cc(C(N)=O)c1NC(=O)c1cc(C(F)(F)F)nn1-c1ncccc1Cl [Compound P25, N-(2-carbamoyl-4-chloro-6-methyl-phenyl)-2-(3-chloro-2-pyridyl)-5-(trifluoromethyl)pyrazole-3-carboxamide] | 0.18 | ≥ 80 |  |
| Cc1cc(Cl)cc(C(N)=O)c1NC(=O)c1cc(Cn2nnc(-c3ccc(F)cc3)n2)nn1-c1ncccc1Cl [Compound P84, N-(2-carbamoyl-4-chloro-6-methyl-phenyl)-2-(3-chloro-2-pyridyl)-5-[[5-(4-fluorophenyl)tetrazol-2-yl]methyl] pyrazole-3-carboxamide] |  |  | ≥ 80 |
| COc1cc(C(=O)Nc2c(C)cc(Cl)cc2C(N)=O)n(-c2ncccc2Cl)n1 [Compound P9, N-(2-carbamoyl-4-chloro-6-methyl-phenyl)-2-(3-chloro-2-pyridyl)-5-methoxy-pyrazole-3-carboxamide] | 0.37 | ≥ 80 |  |
| Cc1cc(Cl)cc(C(N)=O)c1NC(=O)c1cc(OCC(F)(F)C(F)(F)F)nn1-c1ncccc1Cl [Compound P8, N-(2-carbamoyl-4-chloro-6-methyl-phenyl)-2-(3-chloro-2-pyridyl)-5-(2,2,3,3,3-pentafluoropropoxy)pyrazole-3-carboxamide] | 0.14 | ≥ 80 |  |
| Cc1cc(Cl)cc(C(N)=O)c1NC(=O)c1cc(Cn2nnc(-c3ccc(F)c(Br)c3)n2)nn1-c1ncccc1Cl [Compound P102, 5-[[5-(3-bromo-4-fluoro-phenyl)tetrazol-2-yl]methyl]-N-(2-carbamoyl-4-chloro-6-methyl-phenyl)-2-(3-chloro-2-pyridyl)pyrazole-3-carboxamide] |  |  | ≥ 80 |
| NC(=O)c1cc(Br)cc(F)c1NC(=O)c1cc(C(F)(F)F)nn1-c1ncccc1Cl [Compound P42, N-(4-bromo-2-carbamoyl-6-fluoro-phenyl)-2-(3-chloro-2-pyridyl)-5-(trifluoromethyl)pyrazole-3-carboxamide] |  |  | ≥ 80 |
| Cc1cc(-c2nnn(Cc3cc(C(=O)Nc4c(C)cc(Cl)cc4C(N)=O)n(-c4ncccc4Cl)n3)n2)ccc1Cl [Compound P99, N-(2-carbamoyl-4-chloro-6-methyl-phenyl)-5-[[5-(4-chloro-3-methyl-phenyl)tetrazol-2-yl]methyl]-2-(3-chloro-2-pyridyl)pyrazole-3-carboxamide] |  |  | ≥ 80 |
| Cc1cc(C#N)cc(C(N)=O)c1NC(=O)c1cc(Br)nn1-c1ncccc1Cl [Compound P30, 5-bromo-N-(2-carbamoyl-4-cyano-6-methyl-phenyl)-2-(3-chloro-2-pyridyl) pyrazole-3-carboxamide] | 0.39 | ≥ 80 |  |
| Cc1cc(C#N)cc(C(N)=O)c1NC(=O)c1cc(I)nn1-c1ncccc1Cl [Compound P66, N-(2-carbamoyl-4-cyano-6-methyl-phenyl)-2-(3-chloro-2-pyridyl)-5-iodo-pyrazole-3-carboxamide] |  |  | ≥ 80 |
| Cc1cc(Cl)cc(C(N)=O)c1NC(=O)c1cc(Cn2nnnc2-c2ccc(C(F)(F)F)cc2)nn1-c1ncccc1Cl [Compound P15, N-(2-carbamoyl-4-chloro-6-methyl-phenyl)-2-(3-chloro-2-pyridyl)-5-[[5-[4-(trifluoromethyl)phenyl]tetrazol-1-yl]methyl]pyrazole-3-carboxamide] |  | ≥ 80 |  |
| Cc1cc(Cl)cc(C(N)=O)c1NC(=O)c1cc(OCC(F)F)nn1-c1ncccc1Cl [Compound P56, N-(2-carbamoyl-4-chloro-6-methyl-phenyl)-2-(3-chloro-2-pyridyl)-5-(2,2-difluoroethoxy)pyrazole-3-carboxamide] |  |  | ≥ 80 |
| NC(=O)c1cc(Br)cc(Cl)c1NC(=O)c1cc(Cn2nnc(-c3ccc(C(F)(F)F)cc3)n2)nn1-c1ncccc1Cl [Compound P44, N-(4-bromo-2-carbamoyl-6-chloro-phenyl)-2-(3-chloro-2-pyridyl)-5-[[5-[4-(trifluoromethyl)phenyl]tetrazol-2-yl]methyl]pyrazole-3-carboxamide] |  | ≥ 80 |  |
| Cc1cc(I)cc(C(N)=O)c1NC(=O)c1cc(C(F)(F)F)nn1-c1ncccc1Cl [Compound P27, N-(2-carbamoyl-4-iodo-6-methyl-phenyl)-2-(3-chloro-2-pyridyl)-5-(trifluoromethyl)pyrazole-3-carboxamide] | 0.18 | ≥ 80 |  |
| NC(=O)c1cc(I)cc(Cl)c1NC(=O)c1cc(Br)nn1-c1ncccc1Cl [Compound P61, 5-bromo-N-(2-carbamoyl-6-chloro-4-iodo-phenyl)-2-(3-chloro-2-pyridyl) pyrazole-3-carboxamide] |  |  | ≥ 80 |
| COc1cc(C(=O)Nc2c(C)cc(I)cc2C(N)=O)n(-c2ncccc2Cl)n1 [Compound P10, N-(2-carbamoyl-4-iodo-6-methyl-phenyl)-2-(3-chloro-2-pyridyl)-5-methoxy-pyrazole-3-carboxamide] |  | ≥ 80 |  |
| NC(=O)c1cc(I)cc(F)c1NC(=O)c1cc(Br)nn1-c1ncccc1Cl [Compound P65, 5-bromo-N-(2-carbamoyl-6-fluoro-4-iodo-phenyl)-2-(3-chloro-2-pyridyl) pyrazole-3-carboxamide] |  |  | ≥ 80 |
| Cc1cc(Cl)cc(C(N)=O)c1NC(=O)c1cc(Cn2cc(C(F)(F)F)nn2)nn1-c1ncccc1Cl [Compound P20, N-(2-carbamoyl-4-chloro-6-methyl-phenyl)-2-(3-chloro-2-pyridyl)-5-[[4-(trifluoromethyl)triazol-1-yl]methyl] pyrazole-3-carboxamide] |  | ≥ 80 |  |
| Cc1cc(Cl)cc(C(N)=O)c1NC(=O)c1cc(OCC(F)(F)F)nn1-c1ncccc1Cl [Compound P23, N-(2-carbamoyl-4-chloro-6-methyl-phenyl)-2-(3-chloro-2-pyridyl)-5-(2,2,2-trifluoroethoxy)pyrazole-3-carboxamide] | 0.17 | ≥ 80 |  |
| Cc1cc(Cl)cc(C(N)=O)c1NC(=O)c1cc(Cn2ncc(C(F)(F)F)n2)nn1-c1ncccc1Cl [Compound P19, N-(2-carbamoyl-4-chloro-6-methyl-phenyl)-2-(3-chloro-2-pyridyl)-5-[[4-(trifluoromethyl)triazol-2-yl]methyl]pyrazole-3-carboxamide] |  | ≥ 80 |  |
| Cc1cc(Cl)cc(C(N)=O)c1NC(=O)c1cc(Cn2nnc(-c3ccc(C(F)(F)F)cc3)n2)nn1-c1ncccc1Cl [Compound P6, N-(2-carbamoyl-4-chloro-6-methyl-phenyl)-2-(3-chloro-2-pyridyl)-5-[[5-[4-(trifluoromethyl)phenyl]tetrazol-2-yl]methyl]pyrazole-3-carboxamide] |  | ≥ 80 |  |
| NC(=O)c1cc(Cl)cc(Br)c1NC(=O)c1cc(Cn2nnc(-c3ccc(C(F)(F)F)cc3)n2)nn1-c1ncccc1Cl [Compound P57, N-(2-bromo-6-carbamoyl-4-chloro-phenyl)-2-(3-chloro-2-pyridyl)-5-[[5-[4-(trifluoromethyl)phenyl]tetrazol-2-yl]methyl]pyrazole-3-carboxamide] |  | ≥ 80 |  |
| Cc1cc(Cl)cc(C(N)=O)c1NC(=O)c1cc(OC(F)F)nn1-c1ncccc1Cl [Compound P21, N-(2-carbamoyl-4-chloro-6-methyl-phenyl)-2-(3-chloro-2-pyridyl)-5-(difluoromethoxy)pyrazole-3-carboxamide] | 0.25 | ≥ 80 |  |
| Cc1cc(Cl)cc(C(N)=O)c1NC(=O)c1cc(Br)nn1-c1ncccc1Cl [Compound P24, 5-bromo-N-(2-carbamoyl-4-chloro-6-methyl-phenyl)-2-(3-chloro-2-pyridyl)pyrazole-3-carboxamide] | 0.18 | ≥ 80 |  |
| Cc1cc(C#N)cc(C(N)=O)c1NC(=O)c1cc(OCC(F)(F)F)nn1-c1ncccc1Cl [Compound P32, N-(2-carbamoyl-4-cyano-6-methyl-phenyl)-2-(3-chloro-2-pyridyl)-5-(2,2,2-trifluoroethoxy)pyrazole-3-carboxamide] |  | ≥ 80 |  |
